Experimental data taken from patent US10669268B2, “Bicyclic derivatives” (Hoffmann-La Roche Inc., priority 2012, dated 2020).

Target: ATX (human His-tagged) (Homo sapiens (Human), UniProt Q13822)
Experiment: Human ATX enzyme inhibition assay (fluorescence quenching, MR121 substrate)
Assay type: biochemical
Settings: 30 nM ATX, 1 μM MR121 substrate, 30° C., pH 8.0
Experimental: Human ATX Enzyme Inhibition Assay
Assay working solutions were made as follows:
Assay buffer (50 mM Tris-HCl, 140 mM NaCl, 5 mM KCl, 1 mM CaCl2, 1 mM MgCl2, 0.01% Triton-X-100, pH 8.0;
MR121 substrate solution: MR121 substrate stock solution (800 μM MR121 substrate in DMSO), diluted to 2-5× final concentration in assay buffer.
10 μL of MR121 substrate solution was added (1 μM final concentration), mixed 30 times and then incubated for 15 minutes at 30° C.

| Compound | IC50 [nM] |
| --- | --- |
| Cc1ccc(C(C)C)c(OCC(=O)N2CC[C@@H]3CN(C(=O)c4ccc5[nH]nnc5c4)C[C@@H]3CC2)c1 [Example 15.97] | 9 |
| N#Cc1cc(OC(F)(F)F)ccc1OCC(=O)N1C[C@@H]2CN(C(=O)c3ccc4[nH]nnc4c3)C[C@H]2C1 [Example 15.96] | 74 |
| O=C(COc1ccc(OC(F)(F)F)cc1)N1CC[C@@H]2CN(C(=O)c3ccc4[nH]nnc4c3)C[C@H]2C1 (relative stereo) [Example 1.25, 1-[trans-2-(1H-benzotriazole-5-carbonyl)-octahydro-pyrrolo[3,4-c]pyridin-5-yl]-2-(4-trifluoromethoxy-phenoxy)-ethanone] | 114 |
| Cc1cc(COC(=O)N2C[C@@H]3CN(C(=O)c4ccc5[nH]nnc5c4)C[C@H]3C2)c(C(C)C)cc1C#N [Example 4.53, (3aS,6aS)-5-(1H-benzotriazole-5-carbonyl)-hexahydro-pyrrolo[3,4-c]pyrrole-2-carboxylic acid 4-cyano-2-isopropyl-5-methyl-benzyl ester] | 5 |
| O=C(/C=C/c1ccc(OC(F)(F)F)cc1)N1CC[C@@H]2CN(C(=O)NCc3cnn[nH]3)C[C@@H]2CC1 [Example 9.01] | 38 |
| O=C(OCc1cc(Cl)cc(Cl)c1)N1C[C@H]2CCN(C(=O)c3ccc4[nH]nnc4c3)C[C@@H]2C1 (relative stereo) [Example 12A, trans-3,5-dichlorobenzyl 5-(1H-benzo[d][1,2,3]triazole-5-carbonyl)-hexahydro-lH-pyrrolo[3,4-c]pyridine-2(3H)-carboxylate] | 11 |
| O=C(CCc1ccc(-c2ccncc2)cc1)N1C[C@@H]2CN(C(=O)c3ccc4[nH]nnc4c3)C[C@H]2C1 [Example 17.11, 1-[(3aR,6aR)-5-(1H-benzotriazole-5-carbonyl)-hexahydro-pyrrolo[3,4-c]pyrrol-2-yl]-3-(4-pyridin-4-yl-phenyl)-propan-1-one] | 28 |
| O=C(OCc1cc(Cl)cc(Cl)c1)N1C[C@@H]2CN(C(=O)c3ccc4[nH]c(=O)oc4c3)C[C@@H]2C1 [Example 2.01, (3aR,6aS)-3,5-dichlorobenzyl 5-(2-oxo-2,3-dihydrobenzo[d]oxazole-6-carbonyl)hexahydropyrrolo[3,4-c]pyrrole-2(1H)-carboxylate] | 5 |
| O=C(/C=C/c1ccc(-c2ccccc2)nc1)N1C[C@@H]2CN(C(=O)c3ccc4[nH]nnc4c3)C[C@H]2C1 [Example 15.77] | 8 |
| O=C(c1ccc2[nH]nnc2c1)N1C[C@@H]2CN(C(=O)c3cc4ccc(Cl)cc4[nH]3)C[C@@H]2C1 [Example 15.04] | 2020 |
| O=C(OCc1ccc(OC(F)(F)F)cc1)N1C[C@@H]2CN(C(=O)c3ccc4[nH]nnc4c3Cl)C[C@H]2C1 [Example 1.55, (3aS,6aS)-5-(4-chloro-1H-benzotriazole-5-carbonyl)-hexahydro-pyrrolo[3,4-c]pyrrole-2-carboxylic acid 4-trifluoromethoxy-benzyl ester] | 14 |
| O=C(/C=C/c1ccc([S+]([O-])C(F)(F)F)cc1)N1CC[C@@H]2CN(C(=O)c3ccc4[nH]nnc4c3)C[C@@H]2CC1 (stereo partly drawn) [Example 16, (E)-1-((3aR,8aS)-2-(1H-benzo[d][1,2,3]triazole-5-carbonyl)octahydropyrrolo[3,4-d]azepin-6(7H)-yl)-3-(4-(trifluoromethylsulfinyl)phenyl)prop-2-en-1-one] | 15 |
| CC(C)c1cc2c(cc1OCC(=O)N1CC[C@@H]3CN(C(=O)c4ccc5[nH]nnc5c4)C[C@@H]3CC1)C(C)(C)CC2 [Example 1.39, 1-((3aR,8aS)-2-(1H-benzo[d][1,2,3]triazole-5-carbonyl)octahydropyrrolo[3,4-d]azepin-6(7H)-yl)-2-(6-isopropyl-3,3-dimethyl-2,3-dihydro-1H-inden-5-yloxy)ethanone] | 7 |
| CN(Cc1cnn[nH]1)C(=O)N1C[C@H]2CCN(C(=O)/C=C/c3ccc(OC(F)(F)F)cc3)CC[C@H]2C1 [Example 9.07, (3aR,8aS)-N-((1H-1,2,3-triazol-5-yl)methyl)-N-methyl-6-((E)-3-(4-(trifluoromethoxy)phenyl)-acryloyl)octahydro-pyrrolo[3,4-d]azepine-2(1H)-carboxamide] | 74 |
| O=C1N[C@@H]2CCN(C(=O)N3C[C@H]4CCN(C(=O)/C=C/c5ccc(OC(F)(F)F)cc5)CC[C@H]4C3)C[C@H]2O1 [Example 8.05] | 149 |
| O=C(/C=C/c1ccc(OC(F)(F)F)cc1)N1C[C@@H]2CN(C(=O)c3ccc4[nH]nnc4c3)C[C@H]2C1 [Example 15.24] | 10 |
| O=C1N[C@@H]2CCN(C(=O)N3C[C@H]4CCN(C(=O)/C=C/c5ccc(OC(F)(F)F)cc5)CC[C@H]4C3)C[C@@H]2O1 [Example 8.03] | 911 |
| O=C(c1ccc2[nH]nnc2c1)N1C[C@H]2CN(C(=O)c3cc4ccc(OC(F)(F)F)cc4[nH]3)C[C@@H]2C1 [Example 15.98] | 13 |

| Compound | IC50 [nM] |
| --- | --- |
| Cc1ccc(C(C)C)c(OCC(=O)N2C[C@@H]3CN(C(=O)c4ccc5[nH]nnc5c4)C[C@H]3C2)c1 [Example 19, 1-[(3aS,6aS)-5-(1H-benzotriazole-5-carbonyl)-hexahydro-pyrrolo[3,4-c]pyrrol-2-yl]-2-(2-isopropyl-5-methyl-phenoxy)-ethanone] | 7 |
| COc1cc(OC(F)(F)F)ccc1COC(=O)N1CC[C@@H]2CN(C(=O)c3ccc4[nH]nnc4c3)C[C@H]2C1 (relative stereo) [Example 1.33, trans-2-(1H-benzotriazole-5-carbonyl)-octahydro-pyrrolo[3,4-c]pyridine-5-carboxylic acid 2-methoxy-4-trifluoromethoxy-benzyl ester] | 21 |
| CC(=O)c1ccccc1OCC(=O)N1C[C@@H]2CN(C(=O)c3ccc4[nH]nnc4c3)C[C@H]2C1 [Example 19.04, 2-(2-acetyl-phenoxy)-1-[(3aS,6aS)-5-(1H-benzotriazole-5-carbonyl)-hexahydro-pyrrolo[3,4-c]pyrrol-2-yl]-ethanone] | 1710 |
| O=C(COc1ccc(OC(F)(F)F)cc1)N1C[C@@H]2CN(C(=O)c3ccc4[nH]nnc4c3)C[C@H]2C1 [Example 15.63] | 12 |
| O=C1NC2CCC(C(=O)N3CC4CCN(C(=O)/C=C/c5ccc(OC(F)(F)F)cc5)CCC4C3)CC2O1 (stereo in doubt) [Example 1.16, (3aSR,6SR,7aSR)-6-{(3aR,8aS)-6-[(E)-3-(4-trifluoromethoxy-phenyl)-acryloyl]-octahydro-pyrrolo[3,4-d]azepine-2-carbonyl}-hexahydro-benzooxazol-2-one] | 382 |
| O=C(COc1ccc(OC(F)(F)F)cc1Cl)N1C[C@@H]2CN(C(=O)c3ccc4[nH]nnc4c3)C[C@H]2C1 [Example 15.91] | 12 |
| O=C(OCc1ccc(OC(F)(F)F)cc1)N1C[C@@H]2CN(C(=O)c3cc4nn[nH]c4cc3F)C[C@H]2C1 [Example 1.54, (3aS,6aS)-5-(6-fluoro-1H-benzotriazole-5-carbonyl)-hexahydro-pyrrolo[3,4-c]pyrrole-2-carboxylic acid 4-trifluoromethoxy-benzyl ester] | 22 |
| O=C(/C=C/c1ccc(OC(F)(F)F)cc1)N1CC[C@@H]2CN(C(=O)[C@@H]3CCc4[nH]nnc4C3)C[C@@H]2CC1 [Example 1.21, (E)-1-[(3aS,8aR)-2-((R)-4,5,6,7-tetrahydro-1H-benzotriazole-5-carbonyl)-octahydro-pyrrolo[3,4-d]azepin-6-yl]-3-(4-trifluoromethoxy-phenyl)-prop-2-en-1-one] | 5 |
| CN(C)S(=O)(=O)c1ccc(/C=C/C(=O)N2CC[C@@H]3CN(C(=O)c4ccc5[nH]nnc5c4)C[C@@H]3CC2)cc1 [Example 15.08] | 977 |
| CN(Cc1cnn[nH]1)C(=O)N1C[C@H]2CN(C(=O)CCc3ccc(OC(F)(F)F)cc3)C[C@H]2C1 [Example 15.60] | 1040 |
| O=C(OCc1cc(Cl)cc(Cl)c1)N1C[C@@H]2CN(C(=O)c3ccc4[nH]cnc4c3)C[C@@H]2C1 [Example 1.08, (3aR,6aS)-3,5-dichlorobenzyl 5-(1H-benzo[d]imidazole-5-carbonyl)hexahydropyrrolo[3,4-c]pyrrole-2(1H)-carboxylate] | 503 |
| O=C(OCc1cc(Cl)cc(Cl)c1)N1C[C@H]2CN(Cc3ccc4[nH]cnc4c3)C[C@H]2C1 [Example 6, (3aR,6aS)-3,5-Dichlorobenzyl 5-((1H-benzo[d]imidazol-5-yl)methyl)hexahydropyrrolo[3,4-c]pyrrole-2(1H)-carboxylate] | 10400 |
| O=C(/C=C/c1ccc(OC(F)(F)F)cc1)N1CC[C@@H]2CN(C(=O)N3CCc4[nH]cnc4C3)C[C@@H]2CC1 [Example 9.06] | 247 |
| O=C(OCC1C2CC3CC(C2)CC1C3)N1C[C@@H]2CN(C(=O)c3ccc4[nH]nnc4c3)C[C@@H]2C1 (stereo partly drawn) [Example 4.14, (3aS,6aR)-5-(1H-benzotriazole-5-carbonyl)-hexahydro-pyrrolo[3,4-c]pyrrole-2-carboxylic acid adamantan-2-ylmethyl ester] | 4190 |
| O=C(COc1ccccc1C(F)(F)F)N1C[C@@H]2CN(C(=O)c3ccc4[nH]nnc4c3)C[C@H]2C1 [Example 15.87] | 103 |
| Cc1cc(OCC(=O)N2C[C@@H]3CN(C(=O)c4ccc5[nH]nnc5c4)C[C@@H]3C2)c(C(C)C)cc1Cl [Example 15.67] | 14 |
| O=C(OCc1ccc(OC(F)(F)F)cc1F)N1C[C@@H]2CN(C(=O)c3ccc4[nH]nnc4c3)C[C@H]2C1 [Example 4.49, (3aS,6aS)-5-(1H-benzotriazole-5-carbonyl)-hexahydro-pyrrolo[3,4-c]pyrrole-2-carboxylic acid 2-fluoro-4-trifluoromethoxy-benzyl ester] | 3 |
